Measurements from patent publication US12612389B2, “Benzofuran-based N-acylhydrazone derivative and pharmaceutical composition comprising same” (KOREA RESEARCH INSTITUTE OF BIOSCIENCE AND BIOTECHNOLOGY, priority 2019, dated 2026).

What was measured:
Test in all cases: Anti-proliferative activity in other cancer cell lines (MTT)
Type in all cases: cell-based
NCI-H125 = details: Homo sapiens, 96 h, Lung, 4 days
Protocol: (§1) HeLa cells (American Type Culture Collection: ATCC, USA), a human cervical cancer cell line, were seeded in a 96-well plate at 3×10^3 cells/well, and the cells were then treated with compounds of Examples or Comparative Example according to the present invention and grown for 2 days. Then, MTT (3-(4,5-dimethylthiazol-2-yl)-2,5-diphenyltetrazolium bromide) reagent was added at 10 μL/well. After 2 hours, absorbance was measured at “OD 450” and statistical values were obtained using Prism™6 program. The data shown in Table below are mean values of results obtained by repeating the analysis twice.
(§2) Specifically, various cancer cell lines were cultured in a microtiter plate (1-3×10^3 cells/well), treated with the compound of Example 4 according to the present invention, and cultured for 4 days. Cytotoxicity was tested by MTT assay in the same manner as in Experimental Example 1-1, and IC50 was obtained by a log-dose response curve. The data shown in Table below are mean values of results obtained by repeating the analysis three times.

HCT 116 = details: Homo sapiens, 96 h, Colon, 4 days
Protocol: as §1, §2

SNU 484 = details: 96 h, Stomach, 4 days
Protocol: as §1, §2

HeLa CCL2 = details: Homo sapiens, 96 h, Cervix, 4 days
Protocol: as §1, §2

NCI-H522 = details: Homo sapiens, 96 h, Lung, 4 days
Protocol: as §1, §2

A498 = details: Homo sapiens, 96 h, Kidney, 4 days
Protocol: as §1, §2

RPMI-8226 = details: Homo sapiens, 96 h, Marrow (leukemia), 4 days
Protocol: as §1, §2

CCRF-CEM = details: Homo sapiens, 96 h, Peripheral blood, 4 days
Protocol: as §1, §2

Colo 205 = details: Homo sapiens, 96 h, Colon, 4 days
Protocol: as §1, §2

U-2-OS = details: Homo sapiens, U2OS, 96 h, Bone, 4 days
Protocol: as §1, §2

DU145 = details: Homo sapiens, DU-145, 96 h, Prostate, 4 days
Protocol: as §1, §2

U373MG = details: Homo sapiens, U373 MG, 96 h, Brain, 4 days
Protocol: as §1, §2

MDA-MB-468 = details: Homo sapiens, 96 h, Breast, 4 days
Protocol: as §1, §2

SK-N-MC = details: Homo sapiens, 96 h, Brain, 4 days
Protocol: as §1, §2

NCI-H226 = details: Homo sapiens, 96 h, Lung, 4 days
Protocol: as §1, §2

K562 = details: Homo sapiens, 96 h, Marrow (leukemia), 4 days
Protocol: as §1, §2

A549 = details: Homo sapiens, 96 h, A549 (line stands under Liver), 4 days
Protocol: as §1, §2

HCT-15 = details: Homo sapiens, 96 h, Colon, 4 days
Protocol: as §1, §2

NCI-H460 = details: Homo sapiens, 96 h, Lung, 4 days
Protocol: as §1, §2

Hep3B = details: Homo sapiens, 96 h, Liver, 4 days
Protocol: as §1, §2

A172 = details: Homo sapiens, A 172, 96 h, Brain, 4 days
Protocol: as §1, §2

PC3 = details: Homo sapiens, PC-3, 96 h, Prostate, 4 days
Protocol: as §1, §2

HCC1954 = details: Homo sapiens, 96 h, Breast, 4 days
Protocol: as §1, §2

NCI-H1299 = details: Homo sapiens, 96 h, Lung, 4 days
Protocol: as §1, §2

A431 = details: Homo sapiens, A-431, 96 h, Skin, 4 days
Protocol: as §1, §2

SK-MEL 5 = details: Homo sapiens, 96 h, Skin, 4 days
Protocol: as §1, §2

786-O = details: Homo sapiens, 786-0, 96 h, Kidney, 4 days
Protocol: as §1, §2

MOLT4 = details: Homo sapiens, MOLT-4, 96 h, Marrow (leukemia), 4 days
Protocol: as §1, §2

SNB75 = details: Homo sapiens, SNB-75, 96 h, CNS, 4 days
Protocol: as §1, §2

For `CCOCCn1c(Cl)c(/C=N/NC(=O)c2cc3cc(C)ccc3o2)c2ccccc21` [Example 4, (E)-N′-[(2-chloro-1-(2-ethoxyethyl)-1H-indol-3-yl]methylene}-5-methylbenzofuran-2-carbohydrazide], which IC50 (NCI-H125) is on record?
The IC50 was 370 ± 200 nM.

What about the IC50 (HCT 116) of the same compound?
The IC50 was 450 ± 220 nM.

What about the IC50 (SNU 484) of the same compound?
Its IC50 is 350 ± 70 nM.

And the IC50 (HeLa CCL2)?
Its IC50 is 180 ± 4 nM.

And the IC50 (NCI-H522)?
The IC50 was 370 ± 130 nM.

And the IC50 (A498)?
The IC50 was 170 ± 8 nM.

What about the IC50 (RPMI-8226) of the same compound?
The IC50 was 520 ± 130 nM.

What about the IC50 (CCRF-CEM) of the same compound?
Its IC50 is 340 ± 20 nM.

What about the IC50 (Colo 205) of the same compound?
The IC50 was 360 ± 490 nM.

And the IC50 (U-2-OS)?
Its IC50 is 420 ± 60 nM.

And the IC50 (DU145)?
The IC50 was 490 ± 90 nM.

And the IC50 (U373MG)?
The IC50 was 360 ± 10 nM.

What about the IC50 (MDA-MB-468) of the same compound?
The IC50 was 690 ± 30 nM.

And the IC50 (SK-N-MC)?
Its IC50 is 980 ± 110 nM.

What about the IC50 (NCI-H226) of the same compound?
The IC50 was 420 ± 60 nM.

And the IC50 (K562)?
Its IC50 is 470 ± 12 nM.

And the IC50 (A549)?
Its IC50 is 630 ± 120 nM.

What about the IC50 (HCT-15) of the same compound?
Its IC50 is 280 ± 70 nM.

And the IC50 (NCI-H460)?
The IC50 was 500 ± 90 nM.

And the IC50 (Hep3B)?
Its IC50 is 190 ± 50 nM.

And the IC50 (A172)?
Its IC50 is 790 ± 90 nM.

What about the IC50 (PC3) of the same compound?
Its IC50 is 710 ± 180 nM.

What about the IC50 (HCC1954) of the same compound?
The IC50 was 410 ± 50 nM.

And the IC50 (NCI-H1299)?
The IC50 was 560 ± 150 nM.

And the IC50 (A431)?
The IC50 was 220 ± 17 nM.

And the IC50 (SK-MEL 5)?
The IC50 was 460 ± 140 nM.

And the IC50 (786-O)?
The IC50 was 130 ± 50 nM.

And the IC50 (MOLT4)?
Its IC50 is 300 ± 10 nM.

And the IC50 (SNB75)?
The IC50 was 390 ± 30 nM.
